Data on twelve molecules can be found in ChEMBL document CHEMBL1201862, “PubChem BioAssay data set” (2004).

Among the test systems are MDA-N; IGROV-1; NCI-H23; OVCAR-4; T47D; MDA-MB-435; SK-MEL-2; M14; 786-0; HOP-62; SNB-75; PC-3; LOX IMVI; MCF7; CCRF-CEM; SF-268; RXF 393; A498; NCI-H522; Hs-578T.
Common to all, as to test: DTP human tumour cell line panel, 48 h

Molecules are shown by their SMILES.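 The compound was tested at five concentrations on cells cultured in 96-well plates, with a 48-hour exposure period. The concentration for 50% growth inhibition is given as GI50.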 The source made the active and inactive calls. No stated cut-off is given here; in the data, active = GI50 up to about 1.1 µM and inactive = higher.

As usually defined, the GI50 is the concentration at which growth is held to half of that of the control. For `CC1=CC(=O)/C(=C/N2C(=O)CNC2=S)C(=O)O1`, the GI50 with MDA-N, with IGROV-1, in the assay with NCI-H23, with OVCAR-4, in the assay on T47D and with MDA-MB-435 was > 100 µM (inactive) each time. Also, the GI50 in the assay on SK-MEL-2, in the assay with M14, in the assay with 786-0, with HOP-62, with SNB-75 and with PC-3 was > 100 µM (inactive) each time. The GI50 in the assay with LOX IMVI and in the assay on MCF7 was > 100 µM (inactive) in each case.
For the molecule `CCOC(=N)CC(=O)NC(C)c1ccccc1` (centres undefined), the GI50 in the assay on CCRF-CEM, in the assay with IGROV-1, in the assay with NCI-H23, in the assay on OVCAR-4, with SK-MEL-2 and with M14 was > 100 µM (inactive) throughout. Also, the GI50 with SF-268, with 786-0, in the assay on HOP-62, in the assay on SNB-75, with RXF 393 and with A498 was > 100 µM (inactive) in each case. Besides, the GI50 in the assay with LOX IMVI and in the assay on NCI-H522 was > 100 µM (inactive) in each case.
Turning to `Cc1n[n+]([O-])c(C)cc1[N+](=O)[O-]`, the GI50 in the assay with CCRF-CEM is 1.36 µM (inactive); with IGROV-1, 21.8 µM (inactive); in the assay with NCI-H23 it was 16 µM (inactive); in the assay with OVCAR-4 it was 19.4 µM (inactive); with T47D it was 17.4 µM (inactive); with MDA-MB-435 it was 15.6 µM (inactive). Further, the GI50 was 28.6 µM (inactive) in the assay with Hs-578T; 20.1 µM (inactive) with SK-MEL-2; 15.7 µM (inactive) with M14; 46 µM (inactive) in the assay on SF-268; 27.9 µM (inactive) in the assay with 786-0; 19.5 µM (inactive) in the assay on HOP-62. In addition, the GI50 in the assay on SNB-75 is 23.8 µM (inactive); with PC-3, 23.8 µM (inactive); with RXF 393 it was 25.2 µM (inactive); with A498 it was 18.1 µM (inactive); in the assay on LOX IMVI it was 20.9 µM (inactive); with NCI-H522, 12.3 µM (inactive). In the assay on MCF7, the GI50 is 17.3 µM (inactive).
For the molecule `O=CC1C(=O)Nc2nc3ccccc3n2C1c1ccccc1` (centres undefined), the GI50 was 4.38 µM (inactive) in the assay with CCRF-CEM; 13.9 µM (inactive) in the assay on IGROV-1; 19.2 µM (inactive) with NCI-H23; 24.7 µM (inactive) with OVCAR-4; < 0.01 µM (active) with T47D; 17.9 µM (inactive) in the assay with MDA-MB-435. For the same molecule, the GI50 with Hs-578T was 31.6 µM (inactive); in the assay with SK-MEL-2 it was 17.3 µM (inactive); in the assay with M14, 16 µM (inactive); in the assay on SF-268, 12.1 µM (inactive); with 786-0, 12.4 µM (inactive); in the assay on HOP-62, 5.06 µM (inactive). The GI50 with SNB-75 is 5.75 µM (inactive); in the assay on PC-3 it was 18.4 µM (inactive); in the assay on RXF 393 it was 0.183 µM (active); in the assay on A498, 14.3 µM (inactive); in the assay with LOX IMVI it was 11.1 µM (inactive); with NCI-H522, 12.8 µM (inactive). Also, the GI50 in the assay with MCF7 is 10.6 µM (inactive).
On to `O=Nc1c(-c2cccc([N+](=O)[O-])c2)nc2cnccn12`, for which the GI50 was 0.14 µM (active) with CCRF-CEM; 17.4 µM (inactive) in the assay with IGROV-1; 16.7 µM (inactive) with NCI-H23; 17.7 µM (inactive) with OVCAR-4; 15.1 µM (inactive) with T47D; 20.1 µM (inactive) in the assay on MDA-MB-435. The GI50 is 31.7 µM (inactive) in the assay on Hs-578T; 27.9 µM (inactive) in the assay on SK-MEL-2; 18.7 µM (inactive) with M14; 25.9 µM (inactive) in the assay on SF-268; 16 µM (inactive) with 786-0; 26.6 µM (inactive) in the assay with HOP-62. The GI50 is 35.2 µM (inactive) in the assay with SNB-75; 24.9 µM (inactive) in the assay on PC-3; 23 µM (inactive) with RXF 393; 15.2 µM (inactive) with LOX IMVI; 14.6 µM (inactive) in the assay on NCI-H522; 36 µM (inactive) in the assay with MCF7.
In the case of `C/C(=C\COP(=O)(O)OP(=O)(O)O)CC/C=C(\C)CNc1c(F)c(F)c(F)c(F)c1F`, the concentration for 50% growth inhibition (GI50) is 0.126 µM (active) in the assay with CCRF-CEM; > 86.3 µM (inactive) in the assay with IGROV-1; > 100 µM (inactive) in the assay with NCI-H23; > 100 µM (inactive) in the assay with OVCAR-4; > 100 µM (inactive) in the assay on T47D; > 100 µM (inactive) with MDA-MB-435. The GI50 in the assay with Hs-578T was 31 µM (inactive); in the assay on SK-MEL-2, > 100 µM (inactive); in the assay on M14 it was > 100 µM (inactive); with SF-268 it was > 100 µM (inactive); in the assay with 786-0, > 100 µM (inactive); with HOP-62 it was > 100 µM (inactive). The GI50 in the assay with SNB-75 is 1.69 µM (inactive); in the assay on PC-3, 67.3 µM (inactive); in the assay on RXF 393, > 22.9 µM (inactive); in the assay with LOX IMVI, > 100 µM (inactive); in the assay on NCI-H522, > 100 µM (inactive); in the assay on MCF7, > 100 µM (inactive).
In the case of `O=C(NCc1ccccc1)c1cnc(Cl)cn1`, the GI50 in the assay with CCRF-CEM was 23.1 µM (inactive); in the assay on IGROV-1 it was 42.8 µM (inactive); in the assay on NCI-H23, 23.3 µM (inactive); in the assay on OVCAR-4 it was 16.7 µM (inactive); in the assay with T47D, 74 µM (inactive); with MDA-MB-435 it was 62.7 µM (inactive). Moreover, the GI50 with Hs-578T was 43.2 µM (inactive); in the assay with SK-MEL-2 it was 48.1 µM (inactive); with M14 it was 60.8 µM (inactive); in the assay with SF-268, > 100 µM (inactive); in the assay with 786-0, > 100 µM (inactive); in the assay with SNB-75 it was 29.7 µM (inactive). Also, the GI50 in the assay on RXF 393 is > 100 µM (inactive); with A498, > 100 µM (inactive); in the assay with LOX IMVI it was 28.8 µM (inactive); in the assay with NCI-H522 it was 2.12 µM (inactive); with MCF7, > 100 µM (inactive).
Consider `Cc1ccc(SCC(OCn2cnc3c(N)ncnc32)[C@H](C)F)cc1` (some centres undefined), for which the GI50 with CCRF-CEM, in the assay with IGROV-1, with NCI-H23, in the assay with OVCAR-4, in the assay on T47D and with MDA-MB-435 was > 100 µM (inactive) each time. For the same molecule, the GI50 in the assay on Hs-578T, in the assay with SK-MEL-2, in the assay with M14, in the assay with SF-268, in the assay with 786-0 and in the assay on HOP-62 was > 100 µM (inactive) throughout. In addition, the GI50 in the assay with SNB-75, in the assay with PC-3, with LOX IMVI, in the assay with NCI-H522 and in the assay with MCF7 was > 100 µM (inactive) each time.
As to `O=C1C[C@H]2CCCN2[C@@H](c2ccccc2)C1`, the GI50 with CCRF-CEM, in the assay on IGROV-1, in the assay with NCI-H23, in the assay on OVCAR-4, with SK-MEL-2 and in the assay with M14 was > 100 µM (inactive) each time. Moreover, the GI50 in the assay with SF-268, with 786-0, in the assay with HOP-62, in the assay with SNB-75, with RXF 393 and in the assay on A498 was > 100 µM (inactive) each time. The GI50 in the assay with LOX IMVI and in the assay on NCI-H522 was > 100 µM (inactive) throughout.
`O=C1CC(NCc2ccccc2)c2c(Cl)sc(Cl)c21` (centres undefined): the GI50 in the assay on CCRF-CEM was 2.54 µM (inactive); in the assay with IGROV-1, 26.1 µM (inactive); in the assay on NCI-H23, 17.4 µM (inactive); in the assay on OVCAR-4, 28.4 µM (inactive); in the assay with T47D, 73.1 µM (inactive); with MDA-MB-435, 24.7 µM (inactive). The GI50 is 41.8 µM (inactive) in the assay on Hs-578T; 19.5 µM (inactive) with SK-MEL-2; 21.8 µM (inactive) with M14; 16.3 µM (inactive) in the assay on SF-268; 17.1 µM (inactive) with 786-0; 29 µM (inactive) in the assay with HOP-62. Moreover, the GI50 was 29.8 µM (inactive) in the assay with SNB-75; 17.3 µM (inactive) in the assay on PC-3; > 60.3 µM (inactive) with A498; 5.05 µM (inactive) with LOX IMVI; 6.05 µM (inactive) in the assay on NCI-H522; 14 µM (inactive) in the assay on MCF7.
For `CCOC(=O)c1ccc(-c2cc(C)[nH]n2)[nH]1`, the GI50 was > 100 µM (inactive) in the assay on MDA-N; > 100 µM (inactive) with CCRF-CEM; > 100 µM (inactive) with NCI-H23; > 100 µM (inactive) with OVCAR-4; 85.5 µM (inactive) with T47D; > 100 µM (inactive) in the assay on MDA-MB-435. Also, the GI50 in the assay with SK-MEL-2, in the assay with M14, with SF-268, with 786-0, in the assay with HOP-62 and in the assay with SNB-75 was > 100 µM (inactive) throughout. The GI50 was > 100 µM (inactive) in the assay with PC-3; > 100 µM (inactive) in the assay with RXF 393; 50.4 µM (inactive) in the assay on A498; > 100 µM (inactive) with LOX IMVI; > 100 µM (inactive) in the assay on NCI-H522.
`Cn1cnc([N+](=O)[O-])c1[Se]c1ncnc2nc[nH]c12`: the GI50 in the assay on CCRF-CEM is 9.51 µM (inactive); with IGROV-1, 3.38 µM (inactive); in the assay with NCI-H23 it was 17.3 µM (inactive); in the assay with OVCAR-4 it was 3.32 µM (inactive); in the assay with T47D, 15.2 µM (inactive); in the assay with MDA-MB-435 it was 2 µM (inactive). Moreover, the GI50 with Hs-578T is 3.7 µM (inactive); with SK-MEL-2, 10.4 µM (inactive); in the assay on M14, 5.47 µM (inactive); in the assay on SF-268, 7.46 µM (inactive); in the assay with 786-0, 10.4 µM (inactive); with HOP-62, 12 µM (inactive). In addition, the GI50 is 19.6 µM (inactive) with SNB-75; 20.6 µM (inactive) with PC-3; 15.5 µM (inactive) with RXF 393; 3.59 µM (inactive) with A498; 0.497 µM (active) in the assay with LOX IMVI; 3.57 µM (inactive) in the assay with NCI-H522. Further, in the assay with MCF7, the GI50 was 13.6 µM (inactive).
